# Assay results: patent US8318947B2, “Comestible compositions comprising high potency savory flavorants, and processes for producing them” (Senomyx, Inc., priority 2006, dated 2012)
# Experiments:
# [1] = system: human subjects, savory taste; experiment: Human taste test of low sodium tomato juice; assay type: in vivo; conditions: 3 μM cpd; 400 mg Na/8 oz tomato juice
# Protocol: Human taste tests were conducted in order to evaluate the ability of the compounds of the invention to enhance the savory flavor of low sodium tomato juice (which naturally comprises some monosodium glutamate).
# The final tomato juice samples for taste testing were prepared so as to comprise 90% (by volume) pre-made low sodium tomato juice stock (pH 4.2, 80˜100 mg Na/8 oz, 16 mM of naturally occurring MSG), 5% (by volume) of stock solutions formulated to produce selected final levels of sodium of final juice, and 5% (by volume) of a stock solution of the compound of the invention. Selected oxalamide compounds of the invention were dissolved in LSB (low sodium phosphate buffer), to provide a stock solution at 20 times the desired final concentration in the final tomato juice. The desired final sodium concentration of the final tomato juice was most experiments 73.6 mM (400 mg sodium in 8 oz. of juice), therefore a stock solution of NaCl was made at 1.48 M NaCl. The pH for the stock solutions was adjusted to 4.2 using a 1 M citric acid solution, and the stock solutions were sonicated to ensure the additive compounds were completely dissolved. […]
# Scores were averaged across panelists and sessions, and evaluated using a 2-way ANOVA (factors: panelists and samples) and Duncan's multiple comparison test (alpha=0.05) to determine significant differences in intensity ratings.
# [2] = system: trained tasters; experiment: Pizza sauce triangle difference taste test; assay type: in vivo, human
# Protocol: For effective formulation in pizza sauce, a water soluble savory flavor concentrate formulation comprising 0.1% of Compound 1 was developed by dissolution in propylene glycol.
# 18221.7600 g of propylene glycol (supplied by Gold Coast, Inc.) was weighed out into a 2000 ml stainless steel cylinder, 18.2400 grams of Compound 1 was slowly added to 700.00 g of the propylene glycol using a Silverson Mill (model: L4RT) having a square hole high shear screen and set at 2000 rpm, until all of the dry 5807 (Compound 1) was added to the propylene glycol, the mill rpms was increased to 5,000-6,000 rpm's for 8-10 minutes. The remaining 17,521.76 g of propylene glycol was placed into a 10-gallon steam jacketed kettle equipped with a Lightnin Mixer utilizing a three blade impeller and heated to 50° C. (120° F.), then the milled solution was slowly added to the heated and agitated propylene glycol in the kettle. It took over 30 minutes of heating and mixing to completely solubilize Compound 1, then, the solution was allowed to cool to 80° F., then a Unispense Filler was used to fill sterilized 2 oz. glass containers with 62 grams of the liquid savory flavor, for storage. The water activity of the solution was 0.953@24.7° C., the refractive index was 1.4328, and the final concentration of this savory flavor was 0.10% of Compound 1.
# Two pizza sauce samples, one comprising 0.4% of MSG and one containing no MSG, but comprising 1.1 ppm of Compound 1 were prepared using the ingredients listed in Tables 391 and 39-2 below, using the following procedure.
# Salt, citric acid, sugar, the spices and herbs, including the MSG, were pre-blended as solids at 80-100 rpms in a 6 quart bowl and mixed using a KitchenAide blender for 5 minutes using a whip attachment. Water was placed in a clean kettle and stirred with a Lightnin mixer at 120-200 rpms to create a vortex. The savory flavor form of Compound 1, 0.10%, was slowly added to the water and mixed for five minutes. The vinegar and solid spice mixture was slowly added with the mixer still blending at 80-100 rpms until the dry seasonings were dissolved, approximately 5 minutes. The tomato paste was added and the slurry was mixed an additional 10. The resulting pizza sauce was transferred to a stainless steel six quart pot on a gas burner and was heated to pasteurizing temperature (175-190° F.) and held for a minimum of two minutes, cooled down to ambient (70+/−2° F.) temperature.
# Ten trained tasters were trained to identify relative intensities of the following taste attributes: salty, savory/meaty, umami, brothiness, bitter, linger and off flavors. A triangle difference test determines if there is a sensory difference between two products. Three blinded, coded and randomized samples are presented to the panelist. Two samples are the same and one is different. To answer the test correctly, the panelist must taste all three samples and correctly pick out the sample they feel is different from the other two.
# The samples were blind coded and presented in randomized order. The panelists each performed a total of two triangle tests, with 3 samples per test
# a. Test 1: 2 samples with 1.1 ppm Compound 1; one sample with MSG.
# b. Test 2: 2 samples with MSG; one sample with 1.1 ppm Compound 1.
# [3] = Test 1: 2 samples with 1.1 ppm Compound 1, one sample with MSG, 10 panelists
# [4] = Test 2: 2 samples with MSG, one sample with 1.1 ppm Compound 1, 10 panelists
Compound,Enhancement of the savory taste of 16 mM glutamate (naturally existing) in low sodium tomato juice [1],Distinguishing pizza sauce with compound (no MSG) from pizza sauce with full loading of MSG ([2]; 1.1 ppm Compound 1 vs 0.4% MSG),"# Correct [2, 3]","# Incorrect [2, 3]","# Correct [2, 4]","# Incorrect [2, 4]","# Correct ([2]; Totals, n = 20)","# Incorrect ([2]; Totals, n = 20)"
"COc1ccc(CNC(=O)C(=O)NCCc2ccccn2)c(OC)c1 [Example 24, N-(2,4-Dimethoxy-benzyl)-N′-(2-pyridin-2-yl-ethyl)-oxalamide]",by 1.4 to 1.5-fold,,,,,,,
"CCCC(CCC)NC(=O)c1ccc2c(c1)OCO2 [Example 1, N-(heptan-4-yl)benzo[d][1,3]dioxole-5-carboxamide]",,could not distinguish between the sauces,3,7,6,4,9,11
